Source: ChEMBL document CHEMBL1201862, “PubChem BioAssay data set” (2004)
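Cultured in 96-well plates, cells were exposed to test compound for 48 hours across five concentrations. Here, GI50 denotes the concentration required for 50% inhibition of growth.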 The source made the active and inactive calls. Cut-off read from the data, not from the text of the source: active = GI50 up to about 1.1 µM and inactive = higher.

What was measured:
Assay in all cases: NCI-60 cell line screen, 48 h
[1] = system: ACHN
[2] = system: SN12C
[3] = system: CAKI-1
[4] = system: NCI-H460
[5] = system: A549
[6] = system: SW-620
[7] = system: HT-29
[8] = system: NCI-H23
[9] = system: SK-MEL-2
[10] = system: OVCAR-3
[11] = system: U-251
[12] = system: M14
[13] = system: MDA-N
[14] = system: MDA-MB-231
[15] = system: NCI/ADR-RES
[16] = system: OVCAR-5
[17] = system: SNB-75
[18] = system: A498
[19] = system: Hs-578T

SMILES	GI50 [1]	GI50 [2]	GI50 [3]	GI50 [4]	GI50 [5]	GI50 [6]	GI50 [7]	GI50 [8]	GI50 [9]	GI50 [10]	GI50 [11]	GI50 [12]	GI50 [13]	GI50 [14]	GI50 [15]	GI50 [16]	GI50 [17]	GI50 [18]	GI50 [19]
CCCCCCCCCCCCCCCc1nnc(SCC(=O)O)[nH]1	47.3 µM (inactive)	71.9 µM (inactive)	63.2 µM (inactive)	> 100 µM (inactive)	79.1 µM (inactive)	95.5 µM (inactive)	31.7 µM (inactive)	> 100 µM (inactive)	37.9 µM (inactive)	> 100 µM (inactive)	26.4 µM (inactive)	19.3 µM (inactive)	–	–	–	–	–	–	–
Cc1cnc(Cl)nc1C(C#N)c1nc2ccccc2s1 (stereo not given)	18.7 µM (inactive)	14.1 µM (inactive)	22.4 µM (inactive)	30.7 µM (inactive)	29 µM (inactive)	33.6 µM (inactive)	29.6 µM (inactive)	7 µM (inactive)	–	25.5 µM (inactive)	20.1 µM (inactive)	28 µM (inactive)	15 µM (inactive)	40.9 µM (inactive)	22 µM (inactive)	25.8 µM (inactive)	18.8 µM (inactive)	25.2 µM (inactive)	–
O=S(=O)(c1ccccc1)N1CCCC(c2ccccc2)CC1 (stereo not given)	29.2 µM (inactive)	46 µM (inactive)	> 100 µM (inactive)	31.2 µM (inactive)	27.2 µM (inactive)	33 µM (inactive)	15.1 µM (inactive)	27.5 µM (inactive)	45.9 µM (inactive)	53.2 µM (inactive)	45.5 µM (inactive)	> 100 µM (inactive)	64.6 µM (inactive)	30.4 µM (inactive)	38 µM (inactive)	> 100 µM (inactive)	30.8 µM (inactive)	49 µM (inactive)	–
O=C(NC1CCN(Cc2ccccc2)CC1)c1cccc(I)c1	52.4 µM (inactive)	60.5 µM (inactive)	19.7 µM (inactive)	22 µM (inactive)	31.9 µM (inactive)	17.1 µM (inactive)	19.5 µM (inactive)	24 µM (inactive)	18.7 µM (inactive)	40 µM (inactive)	23 µM (inactive)	17.2 µM (inactive)	–	17 µM (inactive)	31.8 µM (inactive)	30.3 µM (inactive)	–	46.6 µM (inactive)	29 µM (inactive)
CC(C)(C)C1=CC(=C2C=Cc3cc(O)ccc3O2)C=C(C(C)(C)C)C1=O	1.69 µM (inactive)	1.63 µM (inactive)	1.62 µM (inactive)	1.34 µM (inactive)	1.5 µM (inactive)	1.38 µM (inactive)	1.65 µM (inactive)	1.79 µM (inactive)	1.63 µM (inactive)	1.21 µM (inactive)	1.39 µM (inactive)	1.69 µM (inactive)	–	1.7 µM (inactive)	1.95 µM (inactive)	2.13 µM (inactive)	1.73 µM (inactive)	1.5 µM (inactive)	2.27 µM (inactive)
CC(=O)Nc1ccc(/N=C2\C(c3ccccc3)=C(SC3=C(c4ccccc4)/C(=N\c4ccc(NC(C)=O)cc4)c4ccccc43)c3ccccc32)cc1	31.8 µM (inactive)	61.2 µM (inactive)	31.4 µM (inactive)	26.7 µM (inactive)	37.2 µM (inactive)	40.2 µM (inactive)	36.7 µM (inactive)	31.3 µM (inactive)	39.5 µM (inactive)	27.4 µM (inactive)	49.8 µM (inactive)	27 µM (inactive)	32.8 µM (inactive)	50.8 µM (inactive)	27.2 µM (inactive)	51.5 µM (inactive)	23.2 µM (inactive)	20.6 µM (inactive)	–
COc1cc2c[n+](C)c3c4cc(OC)c(OCc5ccccc5)cc4c(OCc4ccccc4)cc3c2cc1OC	> 75.2 µM (inactive)	4.03 µM (inactive)	35.2 µM (inactive)	33 µM (inactive)	30 µM (inactive)	3.18 µM (inactive)	3.61 µM (inactive)	5.58 µM (inactive)	2.1 µM (inactive)	2.51 µM (inactive)	0.449 µM (active)	9.66 µM (inactive)	1.23 µM (inactive)	5.02 µM (inactive)	84.7 µM (inactive)	> 29.6 µM (inactive)	4.46 µM (inactive)	48 µM (inactive)	–
COC(=O)[C@@H]1C[C@H]2OC(=O)CC[C@]2(C)O[C@H]1[C@H]1O[C@@](C)(O)CCC[C@H]1C	> 50 µM (inactive)	> 50 µM (inactive)	> 50 µM (inactive)	> 50 µM (inactive)	> 50 µM (inactive)	> 50 µM (inactive)	> 50 µM (inactive)	> 50 µM (inactive)	> 50 µM (inactive)	> 50 µM (inactive)	> 50 µM (inactive)	> 50 µM (inactive)	> 50 µM (inactive)	> 50 µM (inactive)	–	> 50 µM (inactive)	–	–	> 50 µM (inactive)
NS(=O)(=O)c1nnc(NS(=O)(=O)c2ccc([N+](=O)[O-])cc2)s1	> 100 µM (inactive)	–	> 100 µM (inactive)	> 100 µM (inactive)	> 100 µM (inactive)	> 100 µM (inactive)	> 100 µM (inactive)	> 100 µM (inactive)	> 100 µM (inactive)	> 100 µM (inactive)	> 100 µM (inactive)	> 100 µM (inactive)	–	> 100 µM (inactive)	> 100 µM (inactive)	> 100 µM (inactive)	> 100 µM (inactive)	> 100 µM (inactive)	–
CCOC(=O)c1ccc(/N=N/N(C)C(=O)C(C)N)cc1 (stereo not given)	49.5 µM (inactive)	> 100 µM (inactive)	92.5 µM (inactive)	16.7 µM (inactive)	–	> 100 µM (inactive)	> 100 µM (inactive)	> 100 µM (inactive)	> 100 µM (inactive)	> 100 µM (inactive)	> 100 µM (inactive)	> 100 µM (inactive)	78.3 µM (inactive)	> 100 µM (inactive)	> 100 µM (inactive)	> 100 µM (inactive)	55.8 µM (inactive)	–	–
CCNC1=C(NC(=O)CCl)C(=O)c2ccccc2C1=O	18 µM (inactive)	17.9 µM (inactive)	–	23.7 µM (inactive)	33.7 µM (inactive)	25.8 µM (inactive)	> 10 µM (inactive)	19 µM (inactive)	–	17.7 µM (inactive)	20.3 µM (inactive)	20.9 µM (inactive)	15.6 µM (inactive)	21.5 µM (inactive)	23.6 µM (inactive)	19.6 µM (inactive)	> 10 µM (inactive)	–	24.2 µM (inactive)
C=C1c2nc3ccccc3n2C=C(c2ccccc2)N1c1ccc(C)cc1	53.5 µM (inactive)	85.5 µM (inactive)	32.8 µM (inactive)	56.6 µM (inactive)	> 100 µM (inactive)	71.1 µM (inactive)	–	58.6 µM (inactive)	> 100 µM (inactive)	75 µM (inactive)	88.1 µM (inactive)	> 100 µM (inactive)	–	> 100 µM (inactive)	37.7 µM (inactive)	> 100 µM (inactive)	> 100 µM (inactive)	52.7 µM (inactive)	–
COc1cc(S(=O)(=O)Nc2ccc(-c3csc(N4C(=O)C(C)SC4c4cccs4)n3)cc2)ccc1Cl (stereo not given)	> 100 µM (inactive)	39.3 µM (inactive)	50.5 µM (inactive)	–	–	34.4 µM (inactive)	30.5 µM (inactive)	39.8 µM (inactive)	6.49 µM (inactive)	58.5 µM (inactive)	–	30.8 µM (inactive)	–	–	> 100 µM (inactive)	> 100 µM (inactive)	–	> 100 µM (inactive)	6.17 µM (inactive)
COc1ccc(OC)c([N+](=O)[O-])c1-c1nc2sc(Cl)cn2c1/C=N/N=C(N)N	28.6 µM (inactive)	17.3 µM (inactive)	17.1 µM (inactive)	20.7 µM (inactive)	23.2 µM (inactive)	20.2 µM (inactive)	15.5 µM (inactive)	26.4 µM (inactive)	18.6 µM (inactive)	16 µM (inactive)	24.8 µM (inactive)	34.4 µM (inactive)	–	15.1 µM (inactive)	> 100 µM (inactive)	25.9 µM (inactive)	10.1 µM (inactive)	14.1 µM (inactive)	19.1 µM (inactive)
COc1ccc(C(CCC(C)=O)C(=O)O)cc1OC (stereo not given)	> 100 µM (inactive)	> 100 µM (inactive)	> 100 µM (inactive)	> 100 µM (inactive)	> 100 µM (inactive)	> 100 µM (inactive)	> 100 µM (inactive)	> 100 µM (inactive)	> 100 µM (inactive)	> 100 µM (inactive)	> 100 µM (inactive)	–	–	–	–	> 100 µM (inactive)	> 100 µM (inactive)	> 100 µM (inactive)	–
CCSC(SCC)=C1C(=O)N(c2ccccc2)N=C1C	15.7 µM (inactive)	16.1 µM (inactive)	3.8 µM (inactive)	16 µM (inactive)	18.1 µM (inactive)	7.66 µM (inactive)	19.1 µM (inactive)	18.3 µM (inactive)	15.8 µM (inactive)	4.67 µM (inactive)	–	13.6 µM (inactive)	–	–	–	15.9 µM (inactive)	20.6 µM (inactive)	15.3 µM (inactive)	–
COc1cccc(CCNc2c(C#N)c3nc4ccccc4n3c3ccccc23)c1	0.998 µM (active)	3.19 µM (inactive)	1.05 µM (active)	0.378 µM (active)	1.33 µM (inactive)	0.51 µM (active)	0.337 µM (active)	0.741 µM (active)	> 41.6 µM (inactive)	3.87 µM (inactive)	0.721 µM (active)	4.23 µM (inactive)	–	2.33 µM (inactive)	0.333 µM (active)	7 µM (inactive)	0.404 µM (active)	0.592 µM (active)	0.498 µM (active)
